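Five concentrations, 48 hours, 96-well plates. GI50 marks 50% less growth.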 The source made the active and inactive calls. No stated cut-off is given here; in the data, active = GI50 up to about 1.1 µM and inactive = higher.
Assays:
Experiment in all cases: growth of human tumour cells (NCI), 48 h
SW-620 = test system: SW-620
SNB-75 = test system: SNB-75
TK-10 = test system: TK-10
HCT-15 = test system: HCT-15
U-251 = test system: U-251
NCI-H23 = test system: NCI-H23
IGROV-1 = test system: IGROV-1
NCI-H460 = test system: NCI-H460
Malme-3M = test system: Malme-3M
SF-268 = test system: SF-268
UACC-62 = test system: UACC-62
M19-MEL = test system: M19-MEL
SF-539 = test system: SF-539
SK-MEL-2 = test system: SK-MEL-2
OVCAR-8 = test system: OVCAR-8
MDA-N = test system: MDA-N
CAKI-1 = test system: CAKI-1
MCF7 = test system: MCF7
A498 = test system: A498
MDA-MB-231 = test system: MDA-MB-231

| Compound | GI50 (SW-620) | GI50 (SNB-75) | GI50 (TK-10) | GI50 (HCT-15) [µM] | GI50 (U-251) | GI50 (NCI-H23) | GI50 (IGROV-1) | GI50 (NCI-H460) | GI50 (Malme-3M) | GI50 (SF-268) | GI50 (UACC-62) | GI50 (M19-MEL) | GI50 (SF-539) | GI50 (SK-MEL-2) | GI50 (OVCAR-8) | GI50 (MDA-N) | GI50 (CAKI-1) | GI50 (MCF7) | GI50 (A498) | GI50 (MDA-MB-231) |
| --- | --- | --- | --- | --- | --- | --- | --- | --- | --- | --- | --- | --- | --- | --- | --- | --- | --- | --- | --- | --- |
| CCCC/C=C/C1Cc2ccccc2CN1S(=O)(=O)c1ccc(C)cc1 (stereo unspecified) | 11.2 µM (inactive) | 13.3 µM (inactive) | 20.9 µM (inactive) | 8.39 | 11.2 µM (inactive) | 4.27 µM (inactive) | 12.3 µM (inactive) | 12.7 µM (inactive) | 6.67 µM (inactive) | 10.2 µM (inactive) | 12.7 µM (inactive) | 6.01 µM (inactive) | 15.7 µM (inactive) | 14.3 µM (inactive) | 11.3 µM (inactive) | – | – | – | – | – |
| O=[N+]([O-])/C=C/c1cc(Cl)c(/C=C/[N+](=O)[O-])cc1Cl | 1.03 µM (active) | 13.8 µM (inactive) | 2.12 µM (inactive) | 1.01 | 1.63 µM (inactive) | 2.61 µM (inactive) | 3.29 µM (inactive) | 19.4 µM (inactive) | 1.91 µM (inactive) | 2.66 µM (inactive) | 1.91 µM (inactive) | – | 1.86 µM (inactive) | 3.25 µM (inactive) | 1.61 µM (inactive) | 2.27 µM (inactive) | 1.89 µM (inactive) | 2.89 µM (inactive) | 5.89 µM (inactive) | 1.86 µM (inactive) |
| NC1CCN(c2nc3ccccc3c3c2CCCC3)CC1 | 2.75 µM (inactive) | 9.93 µM (inactive) | 10.7 µM (inactive) | 5.37 | 4.59 µM (inactive) | 14.1 µM (inactive) | 6.41 µM (inactive) | 3.5 µM (inactive) | 7.41 µM (inactive) | 12.5 µM (inactive) | 1.95 µM (inactive) | – | 3.33 µM (inactive) | 5.12 µM (inactive) | 13.2 µM (inactive) | 2.97 µM (inactive) | 5.77 µM (inactive) | 3.07 µM (inactive) | 10.3 µM (inactive) | 3.43 µM (inactive) |
| CC(=O)OCC1OC(OCCCOP(=S)(OCCC#N)OCC2OC(n3ccc(N)nc3=O)C(OC(=O)c3ccccc3)C2OC(=O)c2ccccc2)C(OC(C)=O)C(OC(C)=O)C1OC(C)=O (stereo unspecified) | > 100 µM (inactive) | 75.5 µM (inactive) | > 100 µM (inactive) | > 100 | > 100 µM (inactive) | > 100 µM (inactive) | > 100 µM (inactive) | > 100 µM (inactive) | > 100 µM (inactive) | > 100 µM (inactive) | > 100 µM (inactive) | – | > 100 µM (inactive) | > 100 µM (inactive) | > 100 µM (inactive) | > 100 µM (inactive) | > 100 µM (inactive) | 46.6 µM (inactive) | > 100 µM (inactive) | > 100 µM (inactive) |
| Cc1ncc([N+](=O)[O-])n1CCN(C)C(=O)CCCn1ccnc1[N+](=O)[O-] | > 100 µM (inactive) | > 100 µM (inactive) | > 100 µM (inactive) | > 100 | > 100 µM (inactive) | > 100 µM (inactive) | > 100 µM (inactive) | > 100 µM (inactive) | > 100 µM (inactive) | > 100 µM (inactive) | > 100 µM (inactive) | – | > 100 µM (inactive) | > 100 µM (inactive) | > 100 µM (inactive) | > 100 µM (inactive) | > 100 µM (inactive) | > 100 µM (inactive) | > 100 µM (inactive) | > 100 µM (inactive) |
| OC1CC(O)c2c(Cl)sc(Cl)c21 (stereo unspecified) | 44.2 µM (inactive) | 7.67 µM (inactive) | 36 µM (inactive) | 60.5 | 15.5 µM (inactive) | 21.2 µM (inactive) | > 100 µM (inactive) | 21.8 µM (inactive) | 36.3 µM (inactive) | > 100 µM (inactive) | 42.8 µM (inactive) | – | > 100 µM (inactive) | 19.5 µM (inactive) | 41.5 µM (inactive) | > 100 µM (inactive) | 31.5 µM (inactive) | 31.1 µM (inactive) | > 100 µM (inactive) | 32.1 µM (inactive) |
| COc1ccc(CC2C3=C(CCN2C(=O)C2CCC2)CC2(CC3)OCCO2)cc1O (stereo unspecified) | 31.3 µM (inactive) | 15 µM (inactive) | 30.7 µM (inactive) | 14.9 | 39.9 µM (inactive) | 19.2 µM (inactive) | 35.1 µM (inactive) | 27.7 µM (inactive) | 27.9 µM (inactive) | 35.2 µM (inactive) | 46.1 µM (inactive) | – | 27.9 µM (inactive) | 49.3 µM (inactive) | 58.5 µM (inactive) | 12.1 µM (inactive) | 36.6 µM (inactive) | 28.6 µM (inactive) | 26.7 µM (inactive) | 40.8 µM (inactive) |
| CC1(C)N=c2[nH]cnc2=C(C(N)=O)N1 | > 100 µM (inactive) | > 100 µM (inactive) | > 100 µM (inactive) | > 100 | > 100 µM (inactive) | > 100 µM (inactive) | > 100 µM (inactive) | > 100 µM (inactive) | > 100 µM (inactive) | > 100 µM (inactive) | > 100 µM (inactive) | – | > 100 µM (inactive) | > 100 µM (inactive) | > 100 µM (inactive) | > 100 µM (inactive) | > 100 µM (inactive) | > 100 µM (inactive) | > 100 µM (inactive) | > 100 µM (inactive) |
| CCOC(=O)c1c(O)nc(O)c(CC)c1C | > 100 µM (inactive) | > 100 µM (inactive) | > 100 µM (inactive) | > 100 | > 100 µM (inactive) | > 100 µM (inactive) | > 100 µM (inactive) | > 100 µM (inactive) | > 100 µM (inactive) | > 100 µM (inactive) | > 100 µM (inactive) | – | 67 µM (inactive) | > 100 µM (inactive) | > 100 µM (inactive) | > 100 µM (inactive) | > 100 µM (inactive) | > 100 µM (inactive) | > 100 µM (inactive) | > 100 µM (inactive) |
| c1ccc(B2OCC(C3OB(c4ccccc4)OC4COB(c5ccccc5)OC43)O2)cc1 (stereo unspecified) | > 100 µM (inactive) | > 100 µM (inactive) | > 100 µM (inactive) | > 100 | > 100 µM (inactive) | > 100 µM (inactive) | > 100 µM (inactive) | > 100 µM (inactive) | > 100 µM (inactive) | > 100 µM (inactive) | > 100 µM (inactive) | – | > 100 µM (inactive) | > 100 µM (inactive) | > 100 µM (inactive) | > 100 µM (inactive) | > 100 µM (inactive) | > 100 µM (inactive) | > 100 µM (inactive) | > 100 µM (inactive) |
| C/C(=N/NC(=S)Nc1ccc(Cl)cc1)c1cccc(/C(C)=N\NC(=S)Nc2ccc(Cl)cc2)n1 | 4.12 µM (inactive) | 7.48 µM (inactive) | 2.81 µM (inactive) | 2.47 | 6.3 µM (inactive) | 13.2 µM (inactive) | 1.74 µM (inactive) | 3.49 µM (inactive) | 2.59 µM (inactive) | 23.8 µM (inactive) | 3.48 µM (inactive) | – | 1.48 µM (inactive) | 5.41 µM (inactive) | 1.85 µM (inactive) | 17.1 µM (inactive) | 3.72 µM (inactive) | 1.93 µM (inactive) | 20.4 µM (inactive) | 4.14 µM (inactive) |
| CCOC(=O)c1nc2c(nc1C(=O)OCC)C(=O)c1ccccc1C2=O | 0.881 µM (active) | 0.479 µM (active) | 2.75 µM (inactive) | 1.92 | 0.703 µM (active) | 0.31 µM (active) | 2.75 µM (inactive) | 1.59 µM (inactive) | 0.174 µM (active) | 0.818 µM (active) | 0.288 µM (active) | – | 0.473 µM (active) | 0.394 µM (active) | 1.05 µM (active) | 0.248 µM (active) | 1 µM (active) | 0.34 µM (active) | 1.87 µM (inactive) | 2.16 µM (inactive) |
| NCCOc1ccccn1 | > 100 µM (inactive) | > 100 µM (inactive) | > 100 µM (inactive) | > 100 | > 100 µM (inactive) | > 100 µM (inactive) | > 100 µM (inactive) | > 100 µM (inactive) | > 100 µM (inactive) | > 100 µM (inactive) | > 100 µM (inactive) | – | > 100 µM (inactive) | > 100 µM (inactive) | > 100 µM (inactive) | > 100 µM (inactive) | > 100 µM (inactive) | > 100 µM (inactive) | > 100 µM (inactive) | > 100 µM (inactive) |
| Cc1cc(O)c(C(C)C)cc1C1(c2cc(C(C)C)c(O)cc2C)OC(=O)c2ccccc21 | 1.76 µM (inactive) | 2.58 µM (inactive) | 3.33 µM (inactive) | 2 | 1.97 µM (inactive) | 2.12 µM (inactive) | 2.81 µM (inactive) | 1.92 µM (inactive) | 2.21 µM (inactive) | 2.1 µM (inactive) | 1.46 µM (inactive) | – | 1.79 µM (inactive) | 1.82 µM (inactive) | 2.7 µM (inactive) | 1.67 µM (inactive) | 3.37 µM (inactive) | 1.84 µM (inactive) | 2.43 µM (inactive) | 1.91 µM (inactive) |
| Clc1sc(Cl)c2c1[C@@H](Cl)C[C@@H]2Cl | 57.1 µM (inactive) | 33.3 µM (inactive) | > 100 µM (inactive) | > 100 | > 100 µM (inactive) | 53.8 µM (inactive) | 48.1 µM (inactive) | 92.9 µM (inactive) | 29.7 µM (inactive) | 62.1 µM (inactive) | 13.4 µM (inactive) | – | > 100 µM (inactive) | > 100 µM (inactive) | > 100 µM (inactive) | > 100 µM (inactive) | 94.6 µM (inactive) | 52.4 µM (inactive) | > 100 µM (inactive) | > 100 µM (inactive) |

Source: ChEMBL document CHEMBL1201862, “PubChem BioAssay data set” (2004)
